Source: patent publication US8697865B2, “Cyclic amide derivative, and its production and use” (Takeda Pharmaceutical Company Limited, priority 2004, dated 2014)
Counter-ions that a name gives are not always drawn.

Legend:
[1] = target: human FXa (Homo sapiens, UniProt P00742); experiment: Inhibitory action of human activated blood coagulation factor X (FXa); format: biochemical; conditions: chromogenic substrate S-2765, 37° C., absorbance at 405 nm, read-out: IC50 (concentration inhibiting FXa activity by 50%)
Sequence of human FXa (P00742 235-488 limits assumed): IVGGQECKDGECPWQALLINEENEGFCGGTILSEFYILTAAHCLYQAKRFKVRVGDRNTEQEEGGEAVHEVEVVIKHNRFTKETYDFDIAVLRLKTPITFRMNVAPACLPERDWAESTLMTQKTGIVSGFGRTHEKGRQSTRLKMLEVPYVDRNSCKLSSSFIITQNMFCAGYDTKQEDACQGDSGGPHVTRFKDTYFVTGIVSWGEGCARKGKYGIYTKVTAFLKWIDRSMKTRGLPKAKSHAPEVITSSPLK
Sequence of human FXa (P00742 41-179 partner limits assumed): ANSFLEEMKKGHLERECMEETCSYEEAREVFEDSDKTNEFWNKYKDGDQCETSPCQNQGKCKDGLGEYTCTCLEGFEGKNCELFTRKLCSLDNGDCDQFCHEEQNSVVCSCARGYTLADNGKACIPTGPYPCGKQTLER

Row | SMILES | IC50 [1] | melting point
1 | O=C([C@H](O)CS(=O)(=O)c1ccc2cc(Cl)ccc2c1)N1CCN(N2CCCCC2=O)CC1 [Example 8, 1-(4-{(2S)-3-[(6-Chloronaphthalen-2-yl)sulfonyl]-2-hydroxypropanoyl}piperazin-1-yl)piperidin-2-one] | 6.6 nM | 198 °C
2 | O=C([C@H](O)CS(=O)(=O)c1ccc2cc(Cl)ccc2c1)N1CCN(N2CCCNC2=O)CC1 [Example 25, 1-(4-{(2S)-3-[(6-Chloronaphthalen-2-yl)sulfonyl]-2-hydroxypropanoyl}piperazin-1-yl)tetrahydropyrimidin-2(1H)-one] | 4.2 nM | –
3 | O=C(CCS(=O)(=O)c1ccc2cc(Cl)ccc2c1)N1CCN(N2CCCNC2=O)CC1 [Example 33, 1-(1-{3-[(6-Chloronaphthalen-2-yl)sulfonyl]propanoyl}piperazin-4-yl)tetrahydropyrimidin-2(1H)-one] | 9.9 nM | –
4 | N=C1CCCCN1C1CCN(C(=O)[C@H](O)CS(=O)(=O)c2ccc3cc(Cl)ccc3c2)CC1 [Example 43, (2S)-3-[(6-Chloronaphthalen-2-yl)sulfonyl]-1-(2-imino-1,4′-bipiperidin-1′-yl)-1-oxopropan-2-ol trifluoroacetate] | 4.8 nM | –
